The source of these data is patent US20240368150A1 (Hoffmann-La Roche Inc., priority 2021, published 2024).

Structures are written as SMILES. Read-outs that look alike come from different tables or passages of the source.

Assay [1] has as its system primary human T-cells. The assay can be described thus: Proliferation assay after 5 days (CellTiter-Glo, CD3 stimulation; PBS counter screen). It counts as cell-based. The note with it: CD3 stimulation; for EC50: primary human T-cells, CellTiter-Glo after 5 days, EC50 of fitted sigmoidal curve, read-out: Tcell Proliferation CD3 EC50; for Emax: read-out: Emax proliferation (% activation). The method in brief:
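Proliferation is measured 5 days post-treatment as ATP-dependent luminescence. Flags mark compounds that activated unstimulated cells or harmed viability.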
On the technique in general: ATP-based viability assays read luminescence as a measure of living cells.

The test system of assay [2] is primary human T-cells.
Where [3] appears, read: Homo sapiens, T-cell, 120 h, 5 days, normalized to reference compound A1 as stimulator control = 100%, DMSO neutral control.

`COC(=O)N1CC2CC(c3nc(-c4cc5c(cc4F)[S+]([O-])C[C@H](N)C(=O)N5Cc4ccc(OC(F)(F)F)cc4)no3)(C2)C1` (stereo partly drawn) [Example 337, methyl 1-[3-[(3R)-3-amino-8-fluoro-1,4-dioxo-5-[[4-(trifluoromethoxy)phenyl]methyl]-2,3-dihydro-1λ^4,5-benzothiazepin-7-yl]-1,2,4-oxadiazol-5-yl]-3-azabicyclo[3.1.1]heptane-3-carboxylate]: in assay [1] (5 days, normalized to reference compound A1 as stimulator control = 100%, DMSO neutral control), the “Emax proliferation (% activation)” value came out at 92 % activation. Also, the results for the EC50 in assay [1] and in assay [2] were 2270 nM and 5950 nM, respectively.
Turning to `COC1(c2nnc(-c3ccc4c(c3)N(Cc3ccc(Cl)cc3)C(=O)[C@@H](N)CS4(=O)=O)o2)CC1` [Example 365, (3R)-3-amino-5-[(4-chlorophenyl)methyl]-7-[5-(1-methoxycyclopropyl)-1,3,4-oxadiazol-2-yl]-1,1-dioxo-2,3-dihydro-1λ^6,5-benzothiazepin-4-one], the Emax in assay [1] (setting [3]) worked out at 142%. Besides, the EC50 was 686 nM in assay [1] (Homo sapiens, T-cell, 120 h) and 957 nM in assay [2].
`CC(C)(C)c1nnc(-c2cc3c(cc2F)S(=O)(=O)C[C@H](N)C(=O)N3Cc2ccc(OCC(F)F)cc2)o1` [Example 222, (3R)-3-amino-7-(5-tert-butyl-1,3,4-oxadiazol-2-yl)-5-[[4-(2,2-difluoroethoxy)phenyl]methyl]-8-fluoro-1,1-dioxo-2,3-dihydro-1λ^6,5-benzothiazepin-4-one]: the Emax in assay [1] (setting [3]) was determined as 119%. In addition, the EC50 turned out to be 235 nM in assay [1] (Homo sapiens, T-cell, 120 h) and 535 nM in assay [2].
Regarding `CCCC(=O)N[C@H]1CS(=O)(=O)c2cc(F)c(-c3nnc(C(C)(C)C)o3)cc2N(Cc2ccc(Cl)cc2)C1=O` [Example 261, N-[(3R)-7-(5-tert-butyl-1,3,4-oxadiazol-2-yl)-5-[(4-chlorophenyl)methyl]-8-fluoro-1,1,4-trioxo-2,3-dihydro-1λ^6,5-benzothiazepin-3-yl]butanamide], in assay [1] (setting [3]), the Emax came to 115%. The EC50 in assay [1] (Homo sapiens, T-cell, 120 h) was 428 nM; in assay [2], 2690 nM.
Regarding `CCn1cc(-c2cc3c(cc2F)S(=O)(=O)C[C@H](N)C(=O)N3Cc2ccc(Cl)cc2)nn1` [Example 6, (3R)-3-amino-5-[(4-chlorophenyl)methyl]-7-(1-ethyltriazol-4-yl)-8-fluoro-1,1-dioxo-2,3-dihydro-1λ^6,5-benzothiazepin-4-one], in assay [1] (setting [3]), the Emax is 39%. Further, the EC50 in assay [1] (Homo sapiens, T-cell, 120 h) is above 20000 nM; in assay [2], above 20000 nM.
Turning to `CC(C)OCc1nnc(-c2cc3c(cc2F)S(=O)(=O)C[C@H](N)C(=O)N3Cc2ccc(Cl)cc2)o1` [Example 89, (3R)-3-amino-5-[(4-chlorophenyl)methyl]-8-fluoro-7-[5-(isopropoxymethyl)-1,3,4-oxadiazol-2-yl]-1,1-dioxo-2,3-dihydro-1λ^6,5-benzothiazepin-4-one], the Emax in assay [1] (setting [3]) stood at 104%. Moreover, the EC50 in assay [1] (Homo sapiens, T-cell, 120 h) was 615 nM; in assay [2], 117 nM.
In the same order, the values of `CC#CCOc1ccc(CN2C(=O)[C@@H](N)CS(=O)(=O)c3ccc(-c4nnc(C(C)(C)C)o4)cc32)cc1` [Example 441, (3R)-3-amino-7-(5-tert-butyl-1,3,4-oxadiazol-2-yl)-5-[(4-but-2-ynoxyphenyl)methyl]-1,1-dioxo-2,3-dihydro-1λ^6,5-benzothiazepin-4-one] are 128%, 1020 nM and 3850 nM.
As to `CC(C)(C)c1nnc(-c2cc3c(cc2F)S(=O)(=O)C[C@H](N)C(=O)N3Cc2cnn(CC3CC3)c2)o1` [Example 255, (3R)-3-amino-7-(5-tert-butyl-1,3,4-oxadiazol-2-yl)-5-[[1-(cyclopropylmethyl)pyrazol-4-yl]methyl]-8-fluoro-1,1-dioxo-2,3-dihydro-1λ^6,5-benzothiazepin-4-one], the Emax in assay [1] (setting [3]) is 78%. Also, the EC50 turned out to be 4830 nM in assay [1] (Homo sapiens, T-cell, 120 h) and 849 nM in assay [2].
For `CC(C)(C)c1nc(-c2cc3c(cc2F)S(=O)(=O)C[C@H](N)C(=O)N3Cc2ccc(OCC3CCOCC3)cc2)no1` [Example 353, (3R)-3-amino-7-(5-tert-butyl-1,2,4-oxadiazol-3-yl)-8-fluoro-1,1-dioxo-5-[[4-(tetrahydropyran-4-ylmethoxy)phenyl]methyl]-2,3-dihydro-1λ^6,5-benzothiazepin-4-one] the same measures were 108%, 7240 nM and 3250 nM.
For `Cc1ccncc1-c1nc(-c2cc3c(cc2F)S(=O)(=O)C[C@H](N)C(=O)N3Cc2ccc(Cl)cc2)no1` [Example 310, (3R)-3-amino-5-[(4-chlorophenyl)methyl]-8-fluoro-7-[5-(4-methyl-3-pyridyl)-1,2,4-oxadiazol-3-yl]-1,1-dioxo-2,3-dihydro-1λ^6,5-benzothiazepin-4-one], the Emax in assay [1] (setting [3]) came to 90%. Also, the EC50 worked out at 2710 nM in assay [1] (Homo sapiens, T-cell, 120 h) and 3240 nM in assay [2].
For `CC(C)(C)c1nnc(-c2ccc3c(c2)N(Cc2ccc(N4CCN(C5CC5)CC4)cc2)C(=O)[C@@H](N)CS3(=O)=O)o1` [Example 445, (3R)-3-amino-7-(5-tert-butyl-1,3,4-oxadiazol-2-yl)-5-[[4-(4-cyclopropylpiperazin-1-yl)phenyl]methyl]-1,1-dioxo-2,3-dihydro-1λ^6,5-benzothiazepin-4-one], the Emax in assay [1] (setting [3]) amounted to 88%. Moreover, the EC50 in assay [1] (Homo sapiens, T-cell, 120 h) was 4250 nM; in assay [2], 9560 nM.
Consider `CC(C)(CNC1COC1)c1nnc(-c2cc3c(cc2F)S(=O)(=O)C[C@H](N)C(=O)N3Cc2ccc(Cl)cc2)o1` [Example 156, (3R)-3-amino-5-[(4-chlorophenyl)methyl]-7-[5-[1,1-dimethyl-2-(oxetan-3-ylamino)ethyl]-1,3,4-oxadiazol-2-yl]-8-fluoro-1,1-dioxo-2,3-dihydro-1lambda6,5-benzothiazepin-4-one], for which, in assay [1] (setting [3]), the Emax came to 135%. Moreover, the EC50 is 8130 nM in assay [1] (Homo sapiens, T-cell, 120 h) and 3340 nM in assay [2].
With `Cc1nc(-c2nnc(-c3cc4c(cc3F)S(=O)(=O)C[C@H](N)C(=O)N4Cc3ccc(Cl)cc3)o2)no1` [Example 109, (3R)-3-amino-5-[(4-chlorophenyl)methyl]-8-fluoro-7-[5-(5-methyl-1,2,4-oxadiazol-3-yl)-1,3,4-oxadiazol-2-yl]-1,1-dioxo-2,3-dihydro-1λ^6,5-benzothiazepin-4-one], the Emax in assay [1] (setting [3]) was determined as 86%. The EC50 in assay [1] (Homo sapiens, T-cell, 120 h) is 1740 nM; in assay [2], 1500 nM.
`CC(C)(C)n1ccc(-c2cc3c(cc2F)S(=O)(=O)C[C@H](N)C(=O)N3Cc2ccc(Cl)cc2)n1` [Example 287, (3R)-3-amino-7-(1-tert-butylpyrazol-3-yl)-5-[(4-chlorophenyl)methyl]-8-fluoro-1,1-dioxo-2,3-dihydro-1λ^6,5-benzothiazepin-4-one]: in assay [1] (setting [3]), the Emax worked out at 66%. Besides, the EC50 in assay [1] (Homo sapiens, T-cell, 120 h) was found to be 2210 nM; in assay [2], 19300 nM.
Turning to `CC(C)(C)c1nnc(-c2cc3c(cc2F)S(=O)(=O)C[C@H](N)C(=O)N3Cc2ccc(S(C)(=O)=O)cc2F)o1` [Example 240, (3R)-3-amino-7-(5-tert-butyl-1,3,4-oxadiazol-2-yl)-8-fluoro-5-[(2-fluoro-4-methylsulfonyl-phenyl)methyl]-1,1-dioxo-2,3-dihydro-1λ^6,5-benzothiazepin-4-one], in assay [1] (setting [3]), the Emax was determined as 74%. The EC50 in assay [1] (Homo sapiens, T-cell, 120 h) turned out to be 5550 nM; in assay [2] it was 6390 nM.
`N[C@H]1CS(=O)(=O)c2cc(F)c(-c3nnc(NC4CNCC(F)(F)C4)o3)cc2N(Cc2ccc(Cl)cc2)C1=O` (stereo partly drawn) [Example 489, (3R)-3-amino-5-[(4-chlorophenyl)methyl]-7-[5-[(5,5-difluoro-3-piperidyl)amino]-1,3,4-oxadiazol-2-yl]-8-fluoro-1,1-dioxo-2,3-dihydro-1λ^6,5-benzothiazepin-4-one]: in assay [1] (setting [3]), the Emax is 55%. The EC50 in assay [1] (Homo sapiens, T-cell, 120 h) worked out at 7240 nM; in assay [2], 4060 nM.
As for `Cc1nnc(-c2nc(-c3cc4c(cc3F)S(=O)(=O)C[C@H](N)C(=O)N4Cc3ccc(Cl)cc3)no2)o1` [Example 322, (3R)-3-amino-5-[(4-chlorophenyl)methyl]-8-fluoro-7-[5-(5-methyl-1,3,4-oxadiazol-2-yl)-1,2,4-oxadiazol-3-yl]-1,1-dioxo-2,3-dihydro-1λ^6,5-benzothiazepin-4-one], in assay [1] (setting [3]), the Emax amounted to 110%. The EC50 was determined as 751 nM in assay [1] (Homo sapiens, T-cell, 120 h) and 740 nM in assay [2].
As to `CCn1cnc(-c2cc3c(cc2F)S(=O)(=O)C[C@H](N)C(=O)N3Cc2ccc(Cl)cc2)n1` [Example 285, (3R)-3-amino-5-[(4-chlorophenyl)methyl]-7-(1-ethyl-1,2,4-triazol-3-yl)-8-fluoro-1,1-dioxo-2,3-dihydro-1λ^6,5-benzothiazepin-4-one], the Emax in assay [1] (setting [3]) was 60%. The EC50 in assay [1] (Homo sapiens, T-cell, 120 h) stood at 5490 nM; in assay [2] it was 9370 nM.
For the molecule `N[C@H]1CS(=O)(=O)c2cc(F)c(-c3nnc(C4(C(F)(F)F)CC4)o3)cc2N(Cc2ccc(Cl)cc2)C1=O` [Example 126, (3R)-3-amino-5-[(4-chlorophenyl)methyl]-8-fluoro-1,1-dioxo-7-[5-[1-(trifluoromethyl)cyclopropyl]-1,3,4-oxadiazol-2-yl]-2,3-dihydro-1λ^6,5-benzothiazepin-4-one], in assay [1] (setting [3]), the Emax was 135%. Also, the EC50 turned out to be 113 nM in assay [1] (Homo sapiens, T-cell, 120 h) and 62.4 nM in assay [2].
In the case of `CC1(c2nnc(-c3ccc4c(c3)N(Cc3ccc(Cl)cc3)C(=O)[C@@H](N)CS4(=O)=O)o2)CCN(C(=O)OCC(F)(F)F)CC1` [Example 382, 2,2,2-trifluoroethyl 4-[5-[(3R)-3-amino-5-[(4-chlorophenyl)methyl]-1,1,4-trioxo-2,3-dihydro-1λ^6,5-benzothiazepin-7-yl]-1,3,4-oxadiazol-2-yl]-4-methyl-piperidine-1-carboxylate], in assay [1] (setting [3]), the Emax stood at 100%. Further, the EC50 is 893 nM in assay [1] (Homo sapiens, T-cell, 120 h) and 1680 nM in assay [2].
